Assay results published in PMC3898925 (Journal of Molecular Biology, 2010).

Tests used:
[1] = target: T1, WsaF (Geobacillus stearothermophilus, UniProt Q7BG50, K78A/K79A/K81A); experiment: X-ray crystal structure of soaked complex, […] Å; assay type: binding; conditions: crystal soaked 5 min in 20 mM dTDP-β-L-Rha; WsaFSER2 (b48 prints K78A/E79A/K81A); authors regard rhamnose ring position as incorrect
T1 construct: recombinant WsaF from pET28a-WsaF in E. coli BL21(DE3) Star; residues M1 to L413 mentioned
T1 sequence (Q7BG50 entry or part of it K78A/K79A/K81A): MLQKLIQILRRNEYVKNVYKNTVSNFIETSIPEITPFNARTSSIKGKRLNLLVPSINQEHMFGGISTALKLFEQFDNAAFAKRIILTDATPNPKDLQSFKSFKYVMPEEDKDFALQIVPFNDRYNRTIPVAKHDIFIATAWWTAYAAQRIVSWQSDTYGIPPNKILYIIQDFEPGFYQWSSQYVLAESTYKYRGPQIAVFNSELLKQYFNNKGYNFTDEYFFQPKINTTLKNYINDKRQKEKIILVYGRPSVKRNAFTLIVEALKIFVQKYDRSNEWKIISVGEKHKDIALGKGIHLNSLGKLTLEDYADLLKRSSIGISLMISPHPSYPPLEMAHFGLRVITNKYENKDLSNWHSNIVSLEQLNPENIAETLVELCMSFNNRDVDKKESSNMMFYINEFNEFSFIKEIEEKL

[2] = target: T2, WsaF (Geobacillus stearothermophilus, UniProt Q7BG50); experiment: isothermal titration calorimetry; assay type: binding; conditions: 20 mM NaP pH 8.5, 50 mM NaCl, 20 °C; one-site model
T2 construct: recombinant WsaF from pET28a-WsaF in E. coli BL21(DE3) Star; residues M1 to L413 mentioned
T2 sequence (Q7BG50 1-413): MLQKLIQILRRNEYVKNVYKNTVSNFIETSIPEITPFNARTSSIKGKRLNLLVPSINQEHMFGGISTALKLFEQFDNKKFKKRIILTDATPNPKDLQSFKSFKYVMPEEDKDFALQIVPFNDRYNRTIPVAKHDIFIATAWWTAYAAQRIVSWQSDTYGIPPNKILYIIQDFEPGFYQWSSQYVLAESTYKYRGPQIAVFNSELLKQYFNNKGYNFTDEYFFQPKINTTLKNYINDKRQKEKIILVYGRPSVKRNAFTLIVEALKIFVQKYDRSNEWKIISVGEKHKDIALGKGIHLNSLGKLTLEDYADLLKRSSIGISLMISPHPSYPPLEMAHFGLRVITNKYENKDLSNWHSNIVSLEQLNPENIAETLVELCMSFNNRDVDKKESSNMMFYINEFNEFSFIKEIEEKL

[3] = target: T3, WsaF (Geobacillus stearothermophilus, UniProt Q7BG50, R254A); experiment: isothermal titration calorimetry; assay type: binding; conditions: 20 mM NaP pH 8.5, 50 mM NaCl, 20 °C; one-site model
T3 construct: recombinant WsaF from pET28a-WsaF in E. coli BL21(DE3) Star; residues M1 to L413 mentioned
T3 sequence (Q7BG50 entry or part of it R254A): as the sequence (Q7BG50 entry or part of it K78A/K79A/K81A) above, with A78K, A79K, A81K, R254A counted along it

[4] = target: T1, WsaF; experiment: X-ray crystal structure of soaked complex, […] Å; assay type: binding; conditions: crystal soaked 5 min in 25 mM dTDP; surface entropy reduction mutant WsaFSER2 (b48 prints K78A/E79A/K81A)
[5] = target: T4, WsaF (Geobacillus stearothermophilus, UniProt Q7BG50, E333A); experiment: isothermal titration calorimetry; assay type: binding; conditions: 20 mM NaP pH 8.5, 50 mM NaCl, 20 °C; one-site model
T4 construct: recombinant WsaF from pET28a-WsaF in E. coli BL21(DE3) Star; residues M1 to L413 mentioned
T4 sequence (Q7BG50 entry or part of it E333A): as the sequence (Q7BG50 entry or part of it K78A/K79A/K81A) above, with A78K, A79K, A81K, E333A counted along it

[6] = target: the molecule itself; experiment: crystal structure; SeMet-labelled WsaF, space group P2_(1), two molecules in the asymmetric unit, 2.28 Å

Molecule: Cc1cn([C@H]2C[C@H](O)[C@@H](COP(=O)(O)OP(=O)(O)O[C@H]3O[C@@H](C)[C@H](O)[C@@H](O)[C@H]3O)O2)c(=O)[nH]c1=O [dTDP-β-L-rhamnose]
- X-ray crystal structure of soaked complex, 2.55 Å [1]: The structures of the dTDP-WsaFSER2 and dTDP-β-L-Rha-WsaFSER2 complexes were obtained by soaking

Molecule: Cc1cn([C@H]2C[C@H](O)[C@@H](COP(=O)(O)OP(=O)(O)O)O2)c(=O)[nH]c1=O [dTDP]
- isothermal titration calorimetry [2]: showed weaker dTDP binding than native WsaF, when qualitatively comparing the curves (Fig. S3)
- isothermal titration calorimetry [3]: (ITC) of E333A and R254A showed weaker dTDP binding than native WsaF
- X-ray crystal structure of soaked complex, 2.81 Å [4]: The structures of the dTDP-WsaFSER2 and dTDP-β-L-Rha-WsaFSER2 complexes were obtained by soaking
- isothermal titration calorimetry [5]: The mutant E333A showed a reduced binding affinity for dTDP

B1: SeMet-labelled WsaF from Geobacillus stearothermophilus NRS 2004/3a (enzyme)
chain: MLQKLIQILRRNEYVKNVYKNTVSNFIETSIPEITPFNARTSSIKGKRLNLLVPSINQEHMFGGISTALKLFEQFDNKKFKKRIILTDATPNPKDLQSFKSFKYVMPEEDKDFALQIVPFNDRYNRTIPVAKHDIFIATAWWTAYAAQRIVSWQSDTYGIPPNKILYIIQDFEPGFYQWSSQYVLAESTYKYRGPQIAVFNSELLKQYFNNKGYNFTDEYFFQPKINTTLKNYINDKRQKEKIILVYGRPSVKRNAFTLIVEALKIFVQKYDRSNEWKIISVGEKHKDIALGKGIHLNSLGKLTLEDYADLLKRSSIGISLMISPHPSYPPLEMAHFGLRVITNKYENKDLSNWHSNIVSLEQLNPENIAETLVELCMSFNNRDVDKKESSNMMFYINEFNEFSFIKEIEEKL
modifications: selenomethionine (SeMet)-labelled
notes: WsaF, beta-1,2-rhamnosyltransferase of Geobacillus stearothermophilus NRS 2004/3a; the structure is described from M1 to L413 (M1-N25, Q58-G63 and N382-E389 with poor or no density); also called SeMet variant WsaF; SeMet-WsaF; source: E. coli BL21(DE3) Star, purified to homogeneity
- stoichiometry N [6]: 2
